From PMC5729604, “Dual inhibitors of hepatitis C virus and hepatocellular carcinoma: design, synthesis and docking studies” (Future Science OA, 2017)
≈ marks a conversion by molar mass, not a printed value.

What was measured:
[1] = system: human HCC cell line HepG2; assay: cells; type: cell-based; settings: Homo sapiens, HepG2, 72 h, 72 h, neutral red; Supplementary Table 2; read-out: Anticancer (HepG2) IC50
Description: The safe compounds on RBCs (5a-g, 5i-l, 5p-r, 5v-w, 6b-g) were screened for their potential anticancer activity against human HCC cell line HepG2. HepG2 cells were exposed to the test compounds, then viability of cells was measured using neutral red uptake assay as described by Borenfreund and Puerner. This assay depends on the fact that neutral red dye can be incorporated into the lysosomes of living cells providing a quantitative assay to the cytotoxic effects. The results were interpreted to calculate both the concentration causing 50% cancer cell death (IC50) of each compound and the maximum safe concentration that cause 100% viability (LD0; to be used in the in vitro anti-HCV testing) using GraphPad InStat 3.0 software (Figure 5 & Supplementary Table 2).
HepG2 cells were routinely maintained as adherent cell cultures in RPMI-1640 medium (Lonza Group Ltd, Basel, Switzerland) supplemented with 10% fetal bovine serum (FBS; Lonza, IL, USA) at 37°C in a humidified air incubator containing 5% CO2. Cells were subcultured for 2 weeks before assay. Cell viability was assessed using trypan blue exclusion method.
HepG2 cells were washed twice in RPMI-1640 medium supplemented with 200 μM L-glutamine (Lonza) and […] 4-(2-hydroxyethyl)-1-piperazineethanesulfonic acid (HEPES) buffer (Lonza). The cells were suspended at 3 × 10^4 cells/ml in RPMI culture medium (RPMI supplemented medium and 10% FBS). The appropriate number of cells was chosen to be 3 × 10^3 cells/well (100 μl of the prepared suspension), and the cells were left to adhere on the polystyrene 96-well plates in an incubator at 37°C, 5% CO2 and 95% humidity for 24 h. The cells were washed once using RPMI supplemented medium.
A 2 mg/ml stock solution of each compound was prepared in DMF and filtered using a 0.2 μM syringe filter. The desired concentrations (20, 10, 5, 2.5 and 1.25 μg/ml) were prepared using serial dilution in a 96-well plate. Compound wells were prepared by adding 100 μl of the previously prepared concentrations to a 100 μl of HepG2 cells suspension. Parallel concentrations of the solvent were prepared to be used as controls. 5-Fluorouracil was used as a positive control. Control wells were prepared by adding 100 μl culture media to a 100 μl of HepG2 cells suspension. Blank wells contained 200 μl of culture media only (without cells or compound solution). Each set of samples was pipetted in duplicate. The plate was gently shaken, then incubated at 37°C, 5% CO2 for 72 h.
After incubation, the plate was centrifuged (2000 r.p.m. for 10 min). The media were discarded by inversion over paper towels. A working solution (100 μg/ml) of neutral red stain (Bio Basic Inc, Markham, Canada) was prepared, and 100 μl of this solution was added to each well, then the plate was gently shaken. The plate was incubated at 37°C in humidified 5% CO2 for 3 h, and then centrifuged (2000 r.p.m. for 10 min). Excess dyes were discarded, and the cells were fixed with 100 μl fixing solution (0.5% formalin with 1% calcium chloride [Sigma-Aldrich]) for 1 min. Cells were destained in 100 μl destaining solution (50% ethanol with 1% glacial acetic acid [Sigma-Aldrich]) for 5 min by shaking. The stain intensity was assayed using automated microplate reader spectrophotometer adjusted at 490 nm. Surviving cell fraction was calculated according to the following equation: [drawing 3]
The results were interpreted to calculate both the concentration causing 50% cancer cell death (IC50) of each compound and the maximum safe concentration that cause 100% viability (LD0; to be used in the in vitro anti-HCV testing) using GraphPad InStat 3.0 software.

[2] = Solubility in DMF or DMSO under experimental conditions; type: physicochemical
In vitro hemolytic assay = type: cell-based; settings: 2% erythrocyte suspension (washed red blood cells); 2% erythrocyte suspension, 3 μl of 1 mg/ml compound in DMF per 240 μl well, 37°C 30 min, absorbance 405 nm; <5% considered nontoxic
Description: (§1) Compounds 5a-x and 6a-h were subjected to the in vitro hemolytic assay to identify those which cause hemolysis to red blood cells (RBCs). Consequently, these compounds would be toxic in vivo so they were excluded from further biological screening.
(§2) Blood samples (5 ml) were freshly collected into heparinized tubes and were centrifuged (1000 r.p.m. for 20 min) at room temperature. The plasma and buffy coat were removed by Pasteur pipette, and the collected erythrocytes were washed three-times using isotonic buffer solution (0.9% sodium chloride [Sigma-Aldrich, MO, USA]) by centrifugation (2500 r.p.m. for 10 min). A two percent erythrocyte suspension was prepared to be used in the assay.
(§3) A 1 mg/ml stock solution of each compound was prepared in DMF (Sigma-Aldrich). Compound wells were prepared by adding 3 μl of the compound solution to 117 μl isotonic buffer solution and 120 μl erythrocyte suspension. Compounds color blank wells were prepared by adding 3 μl compound to 237 μl isotonic buffer solution. Solvent (DMF) wells were prepared by adding 3 μl DMF to 117 μl isotonic buffer solution and 120 μl erythrocyte suspension. Positive control wells (representing 100% hemolysis) were prepared by adding 120 μl erythrocyte suspension to 120 μl distilled water, while negative control wells (representing 0% hemolysis) were prepared by adding 120 μl erythrocyte suspension to 120 μl isotonic buffer solution. Finally, blank wells contained only 240 μl isotonic buffer solution. Each set of samples was pipetted in triplicate. The microtiter plate was then shaken well on bench, incubated at 37°C for 30 min then centrifuged (2000 rpm for 5 min) at room temperature.
(§4) A fraction of the supernatant layer (150 μl) of each well was transferred to another 96-well microtiter plate. Erythrocyte hemolysis was determined by reading the absorbance (A) of liberated hemoglobin at 405 nm in the supernatant fraction compared with the 100% hemolysis of erythrocyte. The average value was calculated from triplicate assay: [drawing 2]

red blood cells (RBCs) = assay: In vitro hemolytic assay; type: cell-based; settings: <5% hemolysis nontoxic, 5% or more toxic and hemolytic
Description: as §1, §2, §3, §4

SMILES | solubility in DMF or DMSO [2] | melting point | hemolysis at 30 min, 12.5 µg/ml (In vitro hemolytic assay) | other results
O=c1[nH]cc(F)c(=O)[nH]1 [Compound 5-FU, 5-Fluorouracil, reference compound] |  |  |  | IC50 [1]: 0.9 µg/mL (≈ 6.92 µM)
COc1ccc(N2C(=O)C(=Cc3cn(-c4ccccc4)nc3-c3ccc(Cl)cc3)SC2=NN=C(C)c2cc3ccccc3o2)cc1 [Compound 5h, 2-[1-(Benzofuran-2-yl)ethylidenehydrazono]-5-{[3-(4-chlorophenyl)-1-phenyl-1H-pyrazol-4-yl]methylene}-3-(4-methoxyphenyl)thiazolidin-4-one] | could not be dissolved | 280 to 282 °C |  | 
CC(=NN=C1SC(=Cc2cn(-c3ccccc3)nc2-c2ccccc2)C(=O)N1c1ccccc1)c1nc2ccccc2[nH]1 [Compound 5m, 2-[1-(1H-Benzimidazole-2-yl)ethylidenehydrazono]-5-[(1,3-Diphenyl-1H-pyrazol-4-yl)methylene]-3-phenylthiazolidin-4-one] |  | > 300 °C | 11.7% | 
CC(=NN=C1SC(=Cc2cn(-c3ccccc3)nc2-c2ccc(Cl)cc2)C(=O)N1c1ccccc1)c1nc2ccccc2[nH]1 [Compound 5n, 2-[1-(1H-Benzimidazole-2-yl)ethylidenehydrazono]-5-{[3-(4-chlorophenyl)-1-phenyl-1H-pyrazol-4-yl]methylene}-3-phenylthiazolidin-4-one] |  | > 300 °C | 9.52% | 
COc1ccc(-c2nn(-c3ccccc3)cc2C=C2SC(=NN=C(C)c3nc4ccccc4[nH]3)N(c3ccccc3)C2=O)cc1 [Compound 5o, 2-[1-(1H-Benzimidazole-2-yl)ethylidenehydrazono]-5-{[3-(4-methoxyphenyl)-1-phenyl-1H-pyrazol-4-yl]methylene}-3-phenylthiazolidin-4-one] |  | > 300 °C | 15.1% | 
COc1ccc(N2C(=O)C(=Cc3cn(-c4ccccc4)nc3-c3ccccc3)SC2=NN=C(C)c2nc3ccccc3[nH]2)cc1 [Compound 5s, 2-[1-(1H-Benzimidazole-2-yl)ethylidenehydrazono]-5-[(1,3-Diphenyl-1H-pyrazol-4-yl)methylene]-3-(4-methoxyphenyl)thiazolidin-4-one] | could not be dissolved |  |  | 
COc1ccc(N2C(=O)C(=Cc3cn(-c4ccccc4)nc3-c3ccc(Cl)cc3)SC2=NN=C(C)c2nc3ccccc3[nH]2)cc1 [Compound 5t, 2-[1-(1H-Benzimidazole-2-yl)ethylidenehydrazono]-5-{[3-(4-chlorophenyl)-1-phenyl-1H-pyrazol-4-yl]methylene}-3-(4-methoxyphenyl)thiazolidin-4-one] | could not be dissolved |  |  | 
COc1ccc(-c2nn(-c3ccccc3)cc2C=C2SC(=NN=C(C)c3nc4ccccc4[nH]3)N(c3ccc(OC)cc3)C2=O)cc1 [Compound 5u, 2-[1-(1H-Benzimidazole-2-yl)ethylidenehydrazono]-5-{[3-(4-methoxyphenyl)-1-phenyl-1H-pyrazol-4-yl]methylene}-3-(4-methoxyphenyl)thiazolidin-4-one] | could not be dissolved |  |  | 
COc1ccc(-c2nn(-c3ccccc3)cc2C=C2SC(=NN=C(C)c3nc4ccccc4[nH]3)N(C3CCCCC3)C2=O)cc1 [Compound 5x, 2-[1-(1H-Benzimidazole-2-yl)ethylidenehydrazono]-5-{[3-(4-methoxyphenyl)-1-phenyl-1H-pyrazol-4-yl]methylene}-3-cyclohexylthiazolidin-4-one] |  | 215 to 217 °C | 8.74% | toxicity to RBCs (hemolysis), in words (red blood cells (RBCs)): cause hemolysis to RBCs
CC(=NN=C1SC(=C2C(=O)Nc3ccccc32)C(=O)N1c1ccccc1)c1cc2ccccc2o1 [Compound 6a, 2-[1-(Benzofuran-2-yl)ethylidenehydrazono]-5-(2-oxoindolin-3-ylidene)-3-phenylthiazolidin-4-one] |  |  | 11.2% | toxicity to RBCs (hemolysis), in words (red blood cells (RBCs)): cause hemolysis to RBCs
CC(=NN=C1SC(=C2C(=O)Nc3ccccc32)C(=O)N1C1CCCCC1)c1nc2ccccc2[nH]1 [Compound 6h, 2-[1-(1H-Benzimidazole-2-yl)ethylidenehydrazono]-5-(2-oxoindolin-3-ylidene)-3-cyclohexylthiazolidin-4-one] |  |  | 7.56% | toxicity to RBCs (hemolysis), in words (red blood cells (RBCs)): cause hemolysis to RBCs
